Assay results reported in PubChem BioAssay AID342 (DTP/NCI, 2004).
Values joined by “and” are separate entries in the source; they are usually repeats but may differ in a detail not shown here. Identical values can stand only once.

Test system: Swiss mice, Sarcoma 180 sc, mean tumor weight T/C
Test: NCI In Vivo Anticancer Drug Screen. Data for tumor model Sarcoma 180 (subcutaneous) in Swiss mice
Conditions: endpoint: mean tumor weight, higher = larger tumour
Outline: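 Antitumor activity is assessed in mice with transplantable tumors. Treated (T) and vehicle control (C) groups are compared on survival or tumor size.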

[1] = dose: 2.5 mg/kg/injection, schedule: Q#A X014 (sc), vehicle: steriod suspending solution

Which results are given for `CC(=O)OCC(=O)[C@@]1(O)CC[C@H]2[C@@H]3C=C(C)C4=CC(=O)CC[C@]4(C)[C@H]3[C@@H](O)C[C@@]21C`?
T/C (dose: 6.1 mg/kg/injection, schedule: Q01DX007 (sc), vehicle: steriod suspending solution): 67 % of control; T/C (dose: 10.0 mg/kg/injection, schedule: Q#A X014 (ip), vehicle: methylcellulose (MC)): 49 % of control; T/C (dose: 11.8 mg/kg/injection, schedule: Q01DX007 (sc), vehicle: steriod suspending solution): 43 % of control; T/C (dose: 12.5 mg/kg/injection, schedule: Q01DX007 (sc), vehicle: steriod suspending solution): 50 % of control; T/C (dose: 15.0 mg/kg/injection, schedule: Q#A X014 (ip), vehicle: methylcellulose (MC)): 41 % of control and 44 % of control; T/C (dose: 17.7 mg/kg/injection, schedule: Q01DX007 (sc), vehicle: steriod suspending solution): 40 % of control; T/C (dose: 20.0 mg/kg/injection, schedule: Q01DX007 (sc), vehicle: steriod suspending solution): 83 % of control; T/C (dose: 22.5 mg/kg/injection, schedule: Q#A X014 (ip), vehicle: methylcellulose (MC)): 60 % of control and 64 % of control; T/C (dose: 25.0 mg/kg/injection, schedule: Q01DX007 (sc), vehicle: steriod suspending solution): 39 % of control; T/C (dose: 26.6 mg/kg/injection, schedule: Q01DX007 (sc), vehicle: steriod suspending solution): 52 % of control; T/C (dose: 30.0 mg/kg/injection, schedule: Q01DX007 (sc), vehicle: steriod suspending solution): 55 % of control; T/C (dose: 33.75 mg/kg/injection, schedule: Q#A X014 (ip), vehicle: methylcellulose (MC)): 31 % of control and 54 % of control; T/C (dose: 40.0 mg/kg/injection, schedule: Q01DX007 (sc), vehicle: steriod suspending solution): 41 % of control; T/C (dose: 45.0 mg/kg/injection, schedule: Q01DX007 (sc), vehicle: steriod suspending solution): 58 % of control and 64 % of control; T/C (dose: 53.0 mg/kg/injection, schedule: Q01DX007 (sc), vehicle: steriod suspending solution): 71 % of control; T/C (dose: 60.0 mg/kg/injection, schedule: Q01DX007 (sc), vehicle: steriod suspending solution): 36 % of control; T/C (dose: 67.5 mg/kg/injection, schedule: Q01DX007 (sc), vehicle: steriod suspending solution): 60 % of control; T/C (dose: 80.0 mg/kg/injection, schedule: Q01DX007 (sc), vehicle: steriod suspending solution): 53 % of control; T/C (dose: 90.0 mg/kg/injection, schedule: Q01DX007 (sc), vehicle: steriod suspending solution): 31 % of control; T/C (dose: 100.0 mg/kg/injection, schedule: Q01DX007 (sc), vehicle: steriod suspending solution): 26 % of control; T/C (dose: 120.0 mg/kg/injection, schedule: Q01DX007 (sc), vehicle: steriod suspending solution): 51 % of control; T/C (dose: 135.0 mg/kg/injection, schedule: Q01DX007 (sc), vehicle: steriod suspending solution): 27 % of control; T/C (dose: 150.0 mg/kg/injection, schedule: Q01DX007 (sc), vehicle: steriod suspending solution): 54 % of control; T/C (dose: 180.0 mg/kg/injection, schedule: Q01DX007 (sc), vehicle: steriod suspending solution): 32 % of control; T/C (dose: 202.5 mg/kg/injection, schedule: Q01DX007 (sc), vehicle: steriod suspending solution): 24 % of control

How did the T/C (dose: 1.1 mg/kg/injection, schedule: Q#A X014 (sc), vehicle: steriod suspending solution) turn out when `CC1(C)O[C@@H]2C[C@H]3[C@@H]4CCC5=CC(=O)C=C[C@]5(C)[C@@]4(F)[C@@H](O)C[C@]3(C)[C@]2(C(=O)CO)O1` was run?
The T/C was 41 % of control and 57 % of control.

And the T/C (dose: 1.65 mg/kg/injection, schedule: Q#A X014 (sc), vehicle: steriod suspending solution)?
The T/C was 33 % of control and 34 % of control.

And the T/C [1]?
The T/C was 20 % of control and 26 % of control.

What about the T/C (dose: 3.75 mg/kg/injection, schedule: Q#A X014 (sc), vehicle: steriod suspending solution) of the same compound?
The T/C was 22 % of control.

Which results are given for `COc1ccc(CSc2ncnc3nc[nH]c23)cc1`?
T/C (dose: 55.5 mg/kg/injection, schedule: Q#A X014 (ip), vehicle: methylcellulose (MC)): 48 % of control; T/C (dose: 83.0 mg/kg/injection, schedule: Q#A X014 (ip), vehicle: methylcellulose (MC)): 29 % of control; T/C (dose: 125.0 mg/kg/injection, schedule: Q#A X014 (ip), vehicle: methylcellulose (MC)): 14 % of control; T/C (dose: 187.5 mg/kg/injection, schedule: Q#A X014 (ip), vehicle: methylcellulose (MC)): 10 % of control

`COC1C(OC(N)=O)C(O)C(Oc2ccc3c(O)c(NC(=O)c4ccc(O)c(CC=C(C)C)c4)c(=O)oc3c2C)OC1(C)C` (stereo not drawn) was tested. Which T/C (dose: 200.0 mg/kg/injection, schedule: Q01DX007 (ip), vehicle: saline) did it give?
The T/C was 102 % of control.

Which results are given for `CO[C@H]1CC[C@@]2(C)C(=CC[C@H]3[C@@H]4C[C@H](O)[C@H](OC)[C@@]4(C)CC[C@@H]32)C1`?
T/C (dose: 0.25 mg/kg/injection, schedule: Q#A X014 (sc), vehicle: steriod suspending solution): 94 % of control; T/C [1]: 85 % of control; T/C (dose: 10.0 mg/kg/injection, schedule: Q#A X014 (sc), vehicle: steriod suspending solution): 122 % of control; T/C (dose: 50.0 mg/kg/injection, schedule: Q#A X014 (sc), vehicle: steriod suspending solution): 97 % of control

How did the T/C (dose: 500.0 mg/kg/injection, schedule: Q01DX007 (ip), vehicle: other) turn out when `Cc1n[nH]c(=O)[nH]c1=O` was run?
Its T/C is 95 % of control.

And the T/C (dose: 750.0 mg/kg/injection, schedule: Q01DX007 (ip), vehicle: other)?
Its T/C is 83 % of control.

What does the source list for `Nc1nc(SCc2ccccn2)c2ncn(C3OC(CO)C(O)C3O)c2n1` (stereo not drawn)?
T/C (dose: 11.1 mg/kg/injection, schedule: Q#A X014 (ip), vehicle: methylcellulose (MC)): 52 % of control; T/C (dose: 16.65 mg/kg/injection, schedule: Q#A X014 (ip), vehicle: methylcellulose (MC)): 48 % of control; T/C (dose: 25.0 mg/kg/injection, schedule: Q#A X014 (ip), vehicle: methylcellulose (MC)): 37 % of control; T/C (dose: 37.5 mg/kg/injection, schedule: Q#A X014 (ip), vehicle: methylcellulose (MC)): 41 % of control

`CN(Cc1cnc2nc(NCNC(=O)C3=C(O)[C@@]4(O)C(=O)C5=C(O)c6c(O)cccc6[C@@](C)(O)[C@H]5C[C@H]4[C@H](N(C)C)C3=O)nc(N)c2n1)c1ccc(C(=O)NC(CCC(=O)O)C(=O)O)cc1` (stereo partly drawn) was tested. Which T/C (dose: 1.5 mg/kg/injection, schedule: Q01DX007 (ip), vehicle: saline) did it give?
The T/C was 76 % of control.

And the T/C (dose: 3.0 mg/kg/injection, schedule: Q01DX007 (ip), vehicle: saline)?
The T/C was 52 % of control.

And the T/C (dose: 6.0 mg/kg/injection, schedule: Q01DX007 (ip), vehicle: saline)?
Its T/C is 16 % of control.

`CN1CCc2cc3c(cc2C(=O)Cc2ccc4c(c2C1)OCO4)OCO3` was tested. Which T/C (dose: 1.56 mg/kg/injection, schedule: Q01DX007 (ip), vehicle: saline) did it give?
Its T/C is 109 % of control.

What about the T/C (dose: 3.13 mg/kg/injection, schedule: Q01DX007 (ip), vehicle: saline) of the same compound?
The T/C was 69 % of control.

What about the T/C (dose: 6.25 mg/kg/injection, schedule: Q01DX007 (ip), vehicle: saline) of the same compound?
The T/C was 119 % of control.

And the T/C (dose: 25.0 mg/kg/injection, schedule: Q01DX007 (ip), vehicle: saline)?
The T/C was 60 % of control.

What about the T/C (dose: 50.0 mg/kg/injection, schedule: Q01DX007 (ip), vehicle: saline) of the same compound?
The T/C was 64 % of control.

What about the T/C (dose: 62.0 mg/kg/injection, schedule: Q01DX007 (ip), vehicle: carboxymethylcellulose (CMC)) of the same compound?
Its T/C is 79 % of control.

What about the T/C (dose: 100.0 mg/kg/injection, schedule: Q01DX007 (ip), vehicle: saline) of the same compound?
Its T/C is 80 % of control.

Which results are given for `C[C@]12CC[C@H](O)C[C@H]1CC[C@@H]1[C@@H]2CC[C@]2(C)[C@@H](C3=CC(=O)OC3)CC[C@]12O`?
T/C (dose: 5.0 mg/kg/injection, schedule: Q01DX007 (ip), vehicle: carboxymethylcellulose (CMC)): 79 % of control; T/C (dose: 10.0 mg/kg/injection, schedule: Q01DX007 (ip), vehicle: carboxymethylcellulose (CMC)): 68 % of control; T/C (dose: 25.0 mg/kg/injection, schedule: Q01DX007 (ip), vehicle: carboxymethylcellulose (CMC)): 86 % of control

`CC(=O)OCC(=O)[C@@]1(O)CC[C@H]2[C@@H]3C[C@@H](C)C4=CC(=O)C=C[C@]4(C)[C@H]3[C@@H](O)C[C@@]21C` was tested. Which T/C (dose: 32.0 mg/kg/injection, schedule: Q01DX007 (sc), vehicle: steriod suspending solution) did it give?
The T/C was 51 % of control.

And the T/C (dose: 49.0 mg/kg/injection, schedule: Q01DX007 (sc), vehicle: steriod suspending solution)?
The T/C was 56 % of control.

And the T/C (dose: 73.0 mg/kg/injection, schedule: Q01DX007 (sc), vehicle: steriod suspending solution)?
Its T/C is 40 % of control and 55 % of control.

What about the T/C (dose: 109.0 mg/kg/injection, schedule: Q01DX007 (sc), vehicle: steriod suspending solution) of the same compound?
Its T/C is 48 % of control.

And the T/C (dose: 111.0 mg/kg/injection, schedule: Q01DX007 (sc), vehicle: steriod suspending solution)?
Its T/C is 31 % of control.

And the T/C (dose: 165.0 mg/kg/injection, schedule: Q01DX007 (sc), vehicle: steriod suspending solution)?
The T/C was 36 % of control and 47 % of control.

And the T/C (dose: 248.0 mg/kg/injection, schedule: Q01DX007 (sc), vehicle: steriod suspending solution)?
Its T/C is 35 % of control.

What about the T/C (dose: 251.0 mg/kg/injection, schedule: Q01DX007 (sc), vehicle: steriod suspending solution) of the same compound?
The T/C was 33 % of control.

What about the T/C (dose: 375.0 mg/kg/injection, schedule: Q01DX007 (sc), vehicle: steriod suspending solution) of the same compound?
The T/C was 31 % of control.

Which results are given for `Nc1nc(SCc2ccccc2)c2ncn(CCCl)c2n1`?
T/C (dose: 56.0 mg/kg/injection, schedule: Q01DX007 (ip), vehicle: carboxymethylcellulose (CMC)): 36 % of control and 55 % of control; T/C (dose: 83.0 mg/kg/injection, schedule: Q01DX007 (ip), vehicle: carboxymethylcellulose (CMC)): 35 % of control and 41 % of control; T/C (dose: 125.0 mg/kg/injection, schedule: Q01DX007 (ip), vehicle: carboxymethylcellulose (CMC)): 12 % of control and 18 % of control

How did the T/C (dose: 7.5 mg/kg/injection, schedule: Q#A X014 (ip), vehicle: carboxymethylcellulose (CMC)) turn out when `CC(N)C(=O)NC1(C(=O)O)CCCC1` (stereo not drawn) was run?
Its T/C is 75 % of control.

And the T/C (dose: 15.0 mg/kg/injection, schedule: Q#A X014 (ip), vehicle: carboxymethylcellulose (CMC))?
The T/C was 56 % of control.

And the T/C (dose: 30.0 mg/kg/injection, schedule: Q#A X014 (ip), vehicle: carboxymethylcellulose (CMC))?
Its T/C is 62 % of control.

And the T/C (dose: 60.0 mg/kg/injection, schedule: Q#A X014 (ip), vehicle: carboxymethylcellulose (CMC))?
The T/C was 46 % of control.
